Values quoted from earlier work in patent US8333997B2, “Compositions for sustained release of nitric oxide, methods of preparing same and uses thereof” (priority 2006, dated 2012).

What was measured:
[1] = tested on: Methicillin sensitive and Methicillin resistant species; details: against Methicillin sensitive and Methicillin resistant species
S. aureus = details: dose-response study on S. aureus

Which efficacious concentration ranges [1] does the source give for C/C(=C\C(=O)OCCCCCCCCC(=O)O)C[C@@H]1OC[C@H](C[C@@H]2O[C@H]2[C@@H](C)[C@H](C)O)[C@@H](O)[C@H]1O [Mupirocin] here?
The efficacious concentration ranges was 25 to 256 mg/L.

Which “concentration at which NO exhibits potent antimicrobial properties” value (S. aureus) does the source give for [N]=O [NO, nitric oxide] here?
The value was “above 160 ppm”.
